# According to patent publication US20140121732A1, “METHODS AND COMPOSITIONS FOR ADMINISTERING A SPECIFIC WAVELENGTH PHOTOTHERAPY” (Applied Biology, Inc., priority 2011, published 2014):
# Test: UV absorbance spectrum and derived transmittance profile of photocream applied at 20 μm
# Format: physicochemical
# From the text: In one embodiment of the present invention, a band-pass photocream is composed such that it is optimized to have maximum transmittance at a therapeutic wavelength of 311 nm for the treatment of vitiligo, psoriasis, atopic dermatitis, and other skin conditions. Said photocream would contain two UV absorbing active ingredients having UV absorbance spectra that when combined in a determined ratio would have a spectral minimum (valley) at 311 nm. For example, a band-pass photocream could be formulated with silymarin (CAS#22888-70-6) and diethylamino hydroxybenzoyl hexyl benzoate (CAS#302776-68-7) in a weight to weight ratio of 2:3 (or less preferably within the range 1:2 to 5:6, or within the range 5:9 to 7:9) to produce an absorbance spectrum with a spectral valley at 311 nm. Said photocream may contain 0.75% (w/w) silymarin (CAS#22888-70-6) and 1.125% (w/w) diethylamino hydroxybenzoyl hexyl benzoate (CAS#302776-68-7). An illustrative absorbance spectrum for such a composition is shown in FIG. 3 when applied at a thickness of 20 μm. […] Alternatively, a band-pass photocream could be formulated with alpha-glucosyl hesperidin (CAS#161713-86-6) and diethylamino hydroxybenzoyl hexyl benzoate (CAS#302776-68-7) in the weight to weight ratio of 4:1 (or less preferably within the range 3:1 to 5:1, or within the range 7:2 to 9:2) to produce an absorbance spectrum with a spectral valley at 311 nm.
# In yet another embodiment, a combination of UV absorbing molecules may be formulated to selectively pass UVB light in the range 306-310 nm for the benefit of maximum vitamin D production while still providing limited protecting from erythema. Said photocream may contain two UV absorbing active ingredients having UV absorption spectra that when combined in a determined ratio would have a spectral minimum (valley) at 308 nm. […] Said photocream could contain 1% (w/w) silymarin (CAS#22888-70-6) and 2.5% (w/w) diethylamino hydroxybenzoyl hexyl benzoate (CAS#302776-68-7) and would produce an absorbance spectra shown in FIG. 7 when applied at a thickness of 20 μm. […]
row,Structure (SMILES),UV absorbance (in words)
1,"COc1ccc(C(=O)CC(=O)c2ccc(C(C)(C)C)cc2)cc1 [Avobenzone, avobenzone]",significant absorbance in the UVA
2,"COc1ccc([C@@H]2CC(=O)c3c(O)cc(O[C@@H]4O[C@H](CO[C@@H]5O[C@@H](C)[C@H](O)[C@@H](O)[C@H]5O)[C@@H](O)[C@H](O)[C@H]4O)cc3O2)cc1O [Hesperidin, hesperidin]",significant absorbance in the lower UVB range below roughly 310 nm
3,"COC(=O)C=Cc1ccccc1 [Methyl cinnamate, methyl cinnamate]",significant absorbance in the lower UVB range below roughly 310 nm
